Test system: 64 cancer cell lines
Test: Anti-proliferative activity across a panel of 64 cancer cell lines (CellTiter-Glo)
Assay type: cell-based
Experimental: Prior to testing, cells were grown and expanded in culture flasks to provide sufficient amounts of starting material. Cells were then diluted to the appropriate densities and added directly to the compound-spotted 384-well plates. Cells were allowed to grow for 72 h at 37° C./5% CO2. At the time when compound was added (to), initial cell number was assessed via a viability assay (Cell Titer-Glo) by quantifying the level of luminescence generated by ATP present in viable cells. After 72 h, cell viability of compound-treated cells was assessed via Cell Titer-Glo and luminescence measurement. The apoptotic response to Compound 1 was assessed by quantifying the activities of caspase 3 and caspase 7 (Caspase 3/7-Glo) in treated cells and DMSO control cells.
Cells were treated with DMSO or increasing concentrations of Compound 1 for 72 h. Proliferation was measured using CellTiter-Glo as described.

[1] = HUH-6-clone5, 72 h, HuH-6-Clone5 (Liver)
[2] = HepG2/C3A, 72 h, HepG2/C3A (Liver)
[3] = Homo sapiens, A549, 72 h, A549 (Lung)
[4] = Homo sapiens, A-375, 72 h, A375 (Melanoma)
[5] = Homo sapiens, BXPC-3, 72 h, BxPC-3 (Pancreas)
[6] = Homo sapiens, CFPAC-1, 72 h, CFPAC-1 (Pancreas)
[7] = Homo sapiens, COLO 205, 72 h, Colo 205 (Colon)
[8] = Homo sapiens, HCT-116, 72 h, HCT-116 (Colon)
[9] = Homo sapiens, HOP-62, 72 h, HOP62 (Lung)
[10] = Homo sapiens, HOP-92, 72 h, HOP92 (Lung)
[11] = Homo sapiens, HT-29, 72 h, HT29 (Colon)
[12] = Homo sapiens, HT-29, 72 h, HT29/219 (Colon)
[13] = Homo sapiens, Hep3B, 72 h, Hep3B (Liver)
[14] = Homo sapiens, HepG2, 72 h, HepG2 (Liver)
[15] = Homo sapiens, HuCCT-1, 72 h, HuCCT1 (Liver)
[16] = Homo sapiens, HuH-1, 72 h, HuH-1 (Liver)
[17] = Homo sapiens, Huh-7, 72 h, HuH-7 (Liver)
[18] = Homo sapiens, K562, 72 h, K-562 (Leukemia)
[19] = Homo sapiens, KATO III, 72 h, KATOIII, Stomach
[20] = Homo sapiens, LOX IMVI, 72 h, LOX-IMVI (Melanoma)
[21] = Homo sapiens, LoVo, 72 h, LOVO (Colon)
[22] = Homo sapiens, MDA-MB-231, 72 h, MDA-MB-231 (Breast)
[23] = Homo sapiens, Malme-3M, 72 h, MALME-3M (Melanoma)
[24] = Homo sapiens, NCI-H23, 72 h, NCI-H23 (Lung)
[25] = Homo sapiens, NCI-H28, 72 h, NCI-H28 (Lung)
[26] = Homo sapiens, NCI-H226, 72 h, NCI-H226 (Lung)
[27] = Homo sapiens, NCI-H441, 72 h, NCI-H441 (Lung)
[28] = Homo sapiens, NCI-H460, 72 h, NCI-H460 (Lung)
[29] = Homo sapiens, NCI-H520, 72 h, NCI-H520 (Lung)
[30] = Homo sapiens, NCI-H838, 72 h, NCI-H838 (Lung)
[31] = Homo sapiens, NCI-H1299, 72 h, NCI-H1299 (Lung)
[32] = Homo sapiens, NCI-H1703, 72 h, NCI-H1703 (Lung)
[33] = Homo sapiens, NCI-H1755, 72 h, NCI-H1755 (Lung)
[34] = Homo sapiens, NCI-H1975, 72 h, NCI-H1975 (Lung)
[35] = Homo sapiens, NCI-H2122, 72 h, NCI-H2122 (Lung)
[36] = Homo sapiens, PANC-1, 72 h, PANC-1 (Pancreas)
[37] = Homo sapiens, PLC-PRF-5, 72 h, PLC-PRF-5 (Liver)
[38] = Homo sapiens, RPMI-8226, 72 h, RPMI-8226 (Multiple myeloma)
[39] = Homo sapiens, SK-HEP1, 72 h, SK-HEP-1 (Liver)
[40] = Homo sapiens, SNU-182, 72 h, SNU-182 (Liver)
[41] = Homo sapiens, SNU-387, 72 h, SNU-387 (Liver)
[42] = Homo sapiens, SNU-398, 72 h, SNU-398 (Liver)
[43] = Homo sapiens, SNU-423, 72 h, SNU-423 (Liver)
[44] = Homo sapiens, SNU-449, 72 h, SNU-449 (Liver)
[45] = Homo sapiens, SNU-475, 72 h, SNU-475 (Liver)
[46] = Homo sapiens, SW48, 72 h, SW48 (Colon)
[47] = Homo sapiens, SW900, 72 h, SW900 (Lung)
[48] = Homo sapiens, SW1417, 72 h, SW1417 (Colon)
[49] = Homo sapiens, SW-620, 72 h, SW620 (Colon)
[50] = Mel202, 72 h, MEL-202 (Melanoma)

Compound `C[C@]1(C(N)=O)CC[C@@H](n2c(Nc3c(Cl)cc(Cl)cc3Cl)nc3cnc(N[C@@H]4CCOC[C@H]4F)nc32)CC1` [Compound 1, cis-4-[2-{[(3S,4R)-3-fluorooxan-4-yl]amino}-8-(2,4,6-trichloroanilino)-9H-purin-9-yl]-1-methylcyclohexane-1-carboxamide] has a GI50 (72 h, 92-1 (Melanoma)) of 10.2 nM, an IC50 (72 h, 92-1 (Melanoma)) of 31.6 nM and a GI50 (72 h, AGS, Stomach) of 23 nM. It also gave an IC50 (72 h, AGS, Stomach) of 28 nM, a GI50 (72 h, FOCUS (Liver)) of 1500 nM and an IC50 (72 h, FOCUS (Liver)) of 4300 nM. The GI50 (72 h, HLE (Liver)) was 4850 nM, the IC50 (72 h, HLE (Liver)) was 9620 nM and the GI50 (72 h, HLF (Liver)) was 6680 nM. For the same compound, the IC50 (72 h, HLF (Liver)) was 7390 nM, the GI50 (72 h, JHH-5 (Liver)) was 4.5 nM and the IC50 (72 h, JHH-5 (Liver)) was 7 nM. For the same compound, the GI50 (72 h, JHH-6 (Liver)) was 10000 nM, the IC50 (72 h, JHH-6 (Liver)) was 10000 nM and the GI50 (72 h, PC-9 (Lung)) was 217 nM. For the same compound, the IC50 (72 h, PC-9 (Lung)) was 379 nM, the “proliferation of multiple cancer cell lines” value (72 h, CRC, melanoma, gastric cancer, HCC, lung cancer, pancreatic cancer, leukemia, multiple myeloma) was “inhibit the proliferation” and the GI50 [1] was 29.1 nM. For the same compound, the IC50 [1] was 1220 nM, the GI50 [2] was 4620 nM and the IC50 [2] was 10000 nM. The GI50 [3] was 40.2 nM, the IC50 [3] was 82.2 nM and the GI50 [4] was 21 nM. It also gave an IC50 [4] of 24 nM, a GI50 [5] of 36.8 nM and an IC50 [5] of 70.8 nM. For the same compound, the GI50 [6] was 1950 nM, the IC50 [6] was 7400 nM and the GI50 [7] was 25 nM. For the same compound, the IC50 [7] was 40 nM, the GI50 [8] was 17 nM and the IC50 [8] was 22 nM. It also gave a GI50 [9] of 339 nM, an IC50 [9] of 3490 nM and a GI50 [10] of 108 nM. It also gave an IC50 [10] of 117 nM, a GI50 [11] of 16 nM and an IC50 [11] of 25 nM. It also gave a GI50 [12] of 1.7 nM, an IC50 [12] of 4.5 nM and a GI50 [13] of 5.3 nM. For the same compound, the IC50 [13] was 14.7 nM, the GI50 [14] was 34.6 nM and the IC50 [14] was 1240 nM. For the same compound, the GI50 [15] was 25.3 nM, the IC50 [15] was 1300 nM and the GI50 [16] was 235 nM. The IC50 [16] was 7260 nM, the GI50 [17] was 21.2 nM and the IC50 [17] was 489 nM. For the same compound, the GI50 [18] was 5420 nM, the IC50 [18] was 6030 nM and the GI50 [19] was 7050 nM. The IC50 [19] was 8020 nM, the GI50 [20] was 22 nM and the IC50 [20] was 25 nM. It also gave a GI50 [21] of 63 nM, an IC50 [21] of 126 nM and a GI50 [22] of 35.3 nM. The IC50 [22] was 3330 nM, the GI50 (Homo sapiens, MIA PaCa-2, 72 h, MiaPaCa-2 (Pancreas)) was 47 nM and the GI50 [23] was 1.1 nM. It also gave an IC50 [23] of 3.8 nM, a GI50 [24] of 36.4 nM and an IC50 [24] of 182 nM. For the same compound, the GI50 [25] was 1280 nM, the IC50 [25] was 2360 nM and the GI50 [26] was 1630 nM. The IC50 [26] was 6150 nM, the GI50 [27] was 184 nM and the IC50 [27] was 6350 nM. For the same compound, the GI50 [28] was 244 nM, the IC50 [28] was 644 nM and the GI50 [29] was 5240 nM. For the same compound, the IC50 [29] was 8370 nM, the GI50 [30] was 567 nM and the IC50 [30] was 9180 nM. For the same compound, the GI50 [31] was 234 nM, the IC50 [31] was 498 nM and the GI50 [32] was 1350 nM. For the same compound, the IC50 [32] was 1680 nM, the GI50 [33] was 40.4 nM and the IC50 [33] was 58.4 nM. The GI50 [34] was 2050 nM, the IC50 [34] was 3190 nM and the GI50 [35] was 31.8 nM. It also gave an IC50 [35] of 42.7 nM, a GI50 [36] of 5440 nM and an IC50 [36] of 10000 nM. For the same compound, the GI50 [37] was 888 nM, the IC50 [37] was 4010 nM and the GI50 [38] was 3240 nM. It also gave an IC50 [38] of 9740 nM, a GI50 [39] of 7040 nM and an IC50 [39] of 10000 nM. For the same compound, the GI50 [40] was 76.4 nM, the IC50 [40] was 4980 nM and the GI50 [41] was 33.2 nM. It also gave an IC50 [41] of 104 nM, a GI50 [42] of 265 nM and an IC50 [42] of 1970 nM. It also gave a GI50 [43] of 6240 nM, an IC50 [43] of 10000 nM and a GI50 [44] of 10000 nM. It also gave an IC50 [44] of 10000 nM, a GI50 [45] of 9990 nM and an IC50 [45] of 10000 nM. The GI50 [46] was 5.7 nM, the IC50 [46] was 88 nM and the GI50 [47] was 4.8 nM. The IC50 [47] was 21.7 nM, the GI50 [48] was 0.5 nM and the IC50 [48] was 16.9 nM. It also gave a GI50 [49] of 47 nM, an IC50 [49] of 92 nM and a GI50 (JHH1, 72 h, JHH-1 (Liver)) of 1.6 nM. For the same compound, the IC50 (JHH1, 72 h, JHH-1 (Liver)) was 94.6 nM, the GI50 (JHH7, 72 h, JHH-7 (Liver)) was 83.4 nM and the IC50 (JHH7, 72 h, JHH-7 (Liver)) was 548 nM. It also gave a GI50 (JHH-2, 72 h, JHH-2 (Liver)) of 129 nM, an IC50 (JHH-2, 72 h, JHH-2 (Liver)) of 4480 nM and a GI50 (JHH-4, 72 h, JHH-4 (Liver)) of 363 nM. The IC50 (JHH-4, 72 h, JHH-4 (Liver)) was 2320 nM, the GI50 [50] was 38.5 nM and the IC50 [50] was 96.8 nM.

— patent publication US10513519B2, “Solid forms of (1S,4S)-4-(2-(((3S,4R)-3-fluorotetrahydro-2H-pyran-4-yl)amino)-8-((2,4,6-trichlorophenyl)amino)-9H-purin-9-yl)-1-methylcyclohexane-1-carboxamide and methods of their use” (Signal Pharmaceuticals, LLC, priority 2016, dated 2019)
